This note sets out measurements from ChEMBL document CHEMBL4619722, “Alanine scan-guided synthesis and biological evaluation of analogues of culicinin D, a potent anticancer peptaibol” (Bioorg Med Chem Lett, 2020).

Holding throughout (type): functional, cell-based
The test system of assay [1] is SK-BR-3. Briefly: Antiproliferative activity against human SKBR3 cells.
Assay [2] relates to NCI-H460. Briefly: Antiproliferative activity against human NCI-H460 cells.
Assay [3] has as its system T47D. Kind of assay: Antiproliferative activity against human T47D cells.
Assay [4] concerns MDA-MB-468. Briefly: Antiproliferative activity against human MDA-MB-468 cells.

Molecules are shown by their SMILES. Numbered stars: 1 amine (or outer) side, 2 acyl side, 3 side chain; on linkers, the order of the positions; unused ones are H or OH. Square brackets hold non-standard residues; d marks the D form. Peptide text beside a SMILES is read from it. * marks the point of attachment. X1 = CCC(=O)C[C@H](O)C[C@@H](C)C[C@H](N[*:1])C(=O)[*:2]; Gly(1-adamantyl) = N[C@H](C(=O)O)C12CC3CC(CC(C3)C1)C2; NH((S)CH(Me)CH2NHC2H4OH) = C[C@@H](CNCCO)N*; Gly(octyl) = CCCCCCCC[C@H](N)C(=O)O; Ala(cPr) = N[C@@H](CC1CC1)C(=O)O; Cha = N[C@@H](CC1CCCCC1)C(=O)O; Chg = N[C@H](C(=O)O)C1CCCCC1; Ac6c = NC1(C(=O)O)CCCCC1; Ac5c = NC1(C(=O)O)CCCC1; Ac4c = NC1(C(=O)O)CCC1; Ac3c = NC1(C(=O)O)CC1; Aib = CC(C)(N)C(=O)O; Butyryl = CCCC(=O)*; βAla = NCCC(=O)O Where only a bound is given, the exact number is not on record here.

By IC50 is commonly meant the concentration needed to halve the response being measured. Read a high IC50 as lower potency. As to `CCCCCCCC[C@H](NC(=O)C(C)(C)NC(=O)C(C)(C)NC(=O)[C@H](CS)NC(=O)[C@@H]1CCCN1C(=O)CCC)C(=O)N[C@@H](CC(C)C)C(=O)NC(C)(C)C(=O)N[C@@H](CC(C)C)C(=O)NCCC(=O)N[C@@H](C)CNCCO` (Butyryl-PC[Aib][Aib][Gly(octyl)]L[Aib]L[βAla]-{NH((S)CH(Me)CH2NHC2H4OH)}), the IC50 in assay [1] was > 1000 nM; in assay [2] it was 249 nM; in assay [3], 166 nM; in assay [4], 262 nM.

With `CCCCCCCC[C@H](NC(=O)C(C)(C)NC(=O)C(C)(C)NC(=O)[C@H](CCC(=O)O)NC(=O)[C@@H]1CCCN1C(=O)CCC)C(=O)N[C@@H](CC(C)C)C(=O)NC(C)(C)C(=O)N[C@@H](CC(C)C)C(=O)NCCC(=O)N[C@@H](C)CNCCO` (Butyryl-PE[Aib][Aib][Gly(octyl)]L[Aib]L[βAla]-{NH((S)CH(Me)CH2NHC2H4OH)}), the half-inhibitory concentration (IC50) in assay [1], in assay [2], in assay [3] and in assay [4] was > 10000 nM in each case.

For the molecule `CCCCCCCC[C@H](NC(=O)C(C)(C)NC(=O)C(C)(C)NC(=O)[C@H](Cc1ccccc1)NC(=O)[C@@H]1CCCN1C(=O)CCC)C(=O)N[C@@H](CC(C)C)C(=O)NC(C)(C)C(=O)N[C@@H](CC(C)C)C(=O)NCCC(=O)N[C@@H](C)CNCCO` (Butyryl-PF[Aib][Aib][Gly(octyl)]L[Aib]L[βAla]-{NH((S)CH(Me)CH2NHC2H4OH)}), the concentration for half-maximal inhibition (IC50) in assay [1] was 25 nM; in assay [2] it was 6 nM; in assay [3] it was 8 nM; in assay [4], 7 nM.

For the molecule `CCCCCCCC[C@H](NC(=O)C(C)(C)NC(=O)C(C)(C)NC(=O)CNC(=O)[C@@H]1CCCN1C(=O)CCC)C(=O)N[C@@H](CC(C)C)C(=O)NC(C)(C)C(=O)N[C@@H](CC(C)C)C(=O)NCCC(=O)N[C@@H](C)CNCCO` (Butyryl-PG[Aib][Aib][Gly(octyl)]L[Aib]L[βAla]-{NH((S)CH(Me)CH2NHC2H4OH)}), the IC50 came out at 310 nM in assay [1], 133 nM in assay [2], 87 nM in assay [3] and 76 nM in assay [4].

Turning to `CCCCCCCC[C@H](NC(=O)C(C)(C)NC(=O)C(C)(C)NC(=O)[C@H](Cc1c[nH]cn1)NC(=O)[C@@H]1CCCN1C(=O)CCC)C(=O)N[C@@H](CC(C)C)C(=O)NC(C)(C)C(=O)N[C@@H](CC(C)C)C(=O)NCCC(=O)N[C@@H](C)CNCCO` (Butyryl-PH[Aib][Aib][Gly(octyl)]L[Aib]L[βAla]-{NH((S)CH(Me)CH2NHC2H4OH)}), the IC50 was > 1000 nM in assay [1], 456 nM in assay [2], 151 nM in assay [3] and 136 nM in assay [4].

As for `CCCCCCCC[C@H](NC(=O)C(C)(C)NC(=O)C(C)(C)NC(=O)[C@H](CCSC)NC(=O)[C@@H]1CCCN1C(=O)CCC)C(=O)N[C@@H](CC(C)C)C(=O)NC(C)(C)C(=O)N[C@@H](CC(C)C)C(=O)NCCC(=O)N[C@@H](C)CNCCO` (Butyryl-PM[Aib][Aib][Gly(octyl)]L[Aib]L[βAla]-{NH((S)CH(Me)CH2NHC2H4OH)}), the IC50 was 43 nM in assay [1], 10 nM in assay [2], 8 nM in assay [3] and 11 nM in assay [4].

On to `CCCCCCCC[C@H](NC(=O)C(C)(C)NC(=O)C(C)(C)NC(=O)[C@H](Cc1c[nH]c2ccccc12)NC(=O)[C@@H]1CCCN1C(=O)CCC)C(=O)N[C@@H](CC(C)C)C(=O)NC(C)(C)C(=O)N[C@@H](CC(C)C)C(=O)NCCC(=O)N[C@@H](C)CNCCO` (Butyryl-PW[Aib][Aib][Gly(octyl)]L[Aib]L[βAla]-{NH((S)CH(Me)CH2NHC2H4OH)}), for which the IC50 in assay [1] is 60 nM; in assay [2], 23 nM; in assay [3], 15 nM; in assay [4], 21 nM.

Consider `CCCCCCCC[C@H](NC(=O)C(C)(C)NC(=O)C(C)(C)NC(=O)[C@H](Cc1ccc(O)cc1)NC(=O)[C@@H]1CCCN1C(=O)CCC)C(=O)N[C@@H](CC(C)C)C(=O)NC(C)(C)C(=O)N[C@@H](CC(C)C)C(=O)NCCC(=O)N[C@@H](C)CNCCO` (Butyryl-PY[Aib][Aib][Gly(octyl)]L[Aib]L[βAla]-{NH((S)CH(Me)CH2NHC2H4OH)}), for which the IC50 in assay [1] turned out to be 155 nM; in assay [2], 71 nM; in assay [3] it was 32 nM; in assay [4], 35 nM.

On to `CCCCCCCC[C@H](NC(=O)C(C)(C)NC(=O)C(C)(C)NC(=O)C1(NC(=O)[C@@H]2CCCN2C(=O)CCC)CC1)C(=O)N[C@@H](CC(C)C)C(=O)NC(C)(C)C(=O)N[C@@H](CC(C)C)C(=O)NCCC(=O)N[C@@H](C)CNCCO` (Butyryl-P[Ac3c][Aib][Aib][Gly(octyl)]L[Aib]L[βAla]-{NH((S)CH(Me)CH2NHC2H4OH)}), for which the IC50 in assay [1] came out at 236 nM; in assay [2], 87 nM; in assay [3] it was 57 nM; in assay [4], 64 nM.

As for `CCCCCCCC[C@H](NC(=O)C(C)(C)NC(=O)C(C)(C)NC(=O)C1(NC(=O)[C@@H]2CCCN2C(=O)CCC)CCC1)C(=O)N[C@@H](CC(C)C)C(=O)NC(C)(C)C(=O)N[C@@H](CC(C)C)C(=O)NCCC(=O)N[C@@H](C)CNCCO` (Butyryl-P[Ac4c][Aib][Aib][Gly(octyl)]L[Aib]L[βAla]-{NH((S)CH(Me)CH2NHC2H4OH)}), the IC50 in assay [1] was found to be 68 nM; in assay [2] it was 19 nM; in assay [3] it was 17 nM; in assay [4] it was 16 nM.

Regarding `CCCCCCCC[C@H](NC(=O)C(C)(C)NC(=O)C(C)(C)NC(=O)C1(NC(=O)[C@@H]2CCCN2C(=O)CCC)CCCC1)C(=O)N[C@@H](CC(C)C)C(=O)NC(C)(C)C(=O)N[C@@H](CC(C)C)C(=O)NCCC(=O)N[C@@H](C)CNCCO` (Butyryl-P[Ac5c][Aib][Aib][Gly(octyl)]L[Aib]L[βAla]-{NH((S)CH(Me)CH2NHC2H4OH)}), the IC50 in assay [1] worked out at 118 nM; in assay [2], 36 nM; in assay [3], 29 nM; in assay [4] it was 29 nM.

For `CCCCCCCC[C@H](NC(=O)C(C)(C)NC(=O)C(C)(C)NC(=O)C1(NC(=O)[C@@H]2CCCN2C(=O)CCC)CCCCC1)C(=O)N[C@@H](CC(C)C)C(=O)NC(C)(C)C(=O)N[C@@H](CC(C)C)C(=O)NCCC(=O)N[C@@H](C)CNCCO` (Butyryl-P[Ac6c][Aib][Aib][Gly(octyl)]L[Aib]L[βAla]-{NH((S)CH(Me)CH2NHC2H4OH)}), the IC50 in assay [1] was 96 nM; in assay [2], 39 nM; in assay [3] it was 25 nM; in assay [4] it was 31 nM.

For the molecule `CCCCCCCC[C@H](NC(=O)C(C)(C)NC(=O)C(C)(C)NC(=O)C(C)(C)NC(=O)[C@@H]1CCCN1C(=O)CCC)C(=O)N[C@@H](CC(C)C)C(=O)NC(C)(C)C(=O)N[C@@H](CC(C)C)C(=O)NCCC(=O)N[C@@H](C)CNCCO` (Butyryl-P[Aib][Aib][Aib][Gly(octyl)]L[Aib]L[βAla]-{NH((S)CH(Me)CH2NHC2H4OH)}), the IC50 in assay [1] turned out to be 150 nM; in assay [2], 57 nM; in assay [3] it was 29 nM; in assay [4], 48 nM.

In the case of `CCCCCCCC[C@H](NC(=O)C(C)(C)NC(=O)C(C)(C)NC(=O)[C@H](CC1CC1)NC(=O)[C@@H]1CCCN1C(=O)CCC)C(=O)N[C@@H](CC(C)C)C(=O)NC(C)(C)C(=O)N[C@@H](CC(C)C)C(=O)NCCC(=O)N[C@@H](C)CNCCO` (Butyryl-P[Ala(cPr)][Aib][Aib][Gly(octyl)]L[Aib]L[βAla]-{NH((S)CH(Me)CH2NHC2H4OH)}), the IC50 in assay [1] worked out at 29 nM; in assay [2] it was 8 nM; in assay [3] it was 10 nM; in assay [4], 10 nM.

Regarding `CCCCCCCC[C@H](NC(=O)C(C)(C)NC(=O)C(C)(C)NC(=O)[C@H](CC1CCCCC1)NC(=O)[C@@H]1CCCN1C(=O)CCC)C(=O)N[C@@H](CC(C)C)C(=O)NC(C)(C)C(=O)N[C@@H](CC(C)C)C(=O)NCCC(=O)N[C@@H](C)CNCCO` (Butyryl-P[Cha][Aib][Aib][Gly(octyl)]L[Aib]L[βAla]-{NH((S)CH(Me)CH2NHC2H4OH)}), the IC50 is 12 nM in assay [1], 2 nM in assay [2], 4 nM in assay [3] and 3 nM in assay [4].

In the case of `CCCCCCCC[C@H](NC(=O)C(C)(C)NC(=O)C(C)(C)NC(=O)[C@@H](NC(=O)[C@@H]1CCCN1C(=O)CCC)C1CCCCC1)C(=O)N[C@@H](CC(C)C)C(=O)NC(C)(C)C(=O)N[C@@H](CC(C)C)C(=O)NCCC(=O)N[C@@H](C)CNCCO` (Butyryl-P[Chg][Aib][Aib][Gly(octyl)]L[Aib]L[βAla]-{NH((S)CH(Me)CH2NHC2H4OH)}), the IC50 worked out at 21 nM in assay [1], 6 nM in assay [2], 8 nM in assay [3] and 10 nM in assay [4].

On to `CCCCCCCC[C@H](NC(=O)C(C)(C)NC(=O)C(C)(C)NC(=O)[C@@H](NC(=O)[C@@H]1CCCN1C(=O)CCC)C12CC3CC(CC(C3)C1)C2)C(=O)N[C@@H](CC(C)C)C(=O)NC(C)(C)C(=O)N[C@@H](CC(C)C)C(=O)NCCC(=O)N[C@@H](C)CNCCO` (Butyryl-P[Gly(1-adamantyl)][Aib][Aib][Gly(octyl)]L[Aib]L[βAla]-{NH((S)CH(Me)CH2NHC2H4OH)}), for which the IC50 in assay [1] came out at 72 nM; in assay [2], 17 nM; in assay [3] it was 16 nM; in assay [4], 21 nM.

Consider `CCCCCCCC[C@H](NC(=O)[C@@H]1CCCN1C(=O)CCC)C(=O)NC(C)(C)C(=O)NC(C)(C)C(=O)N[C@@H](CCCCCCCC)C(=O)N[C@@H](CC(C)C)C(=O)NC(C)(C)C(=O)N[C@@H](CC(C)C)C(=O)NCCC(=O)N[C@@H](C)CNCCO` (Butyryl-P[Gly(octyl)][Aib][Aib][Gly(octyl)]L[Aib]L[βAla]-{NH((S)CH(Me)CH2NHC2H4OH)}), for which the IC50 in assay [1] was 15 nM; in assay [2], 5 nM; in assay [3], 7 nM; in assay [4] it was 5 nM.

Turning to `CCCC(=O)N1CCC[C@H]1C(=O)N[C@@H](C[C@H](C)C[C@@H](O)CC(=O)CC)C(=O)NC(C)(C)C(=O)NC(C)(C)C(=O)N[C@@H](C)C(=O)N[C@@H](CC(C)C)C(=O)NC(C)(C)C(=O)N[C@@H](CC(C)C)C(=O)NCCC(=O)N[C@@H](C)CNCCO` (Butyryl-P[X1][Aib][Aib]AL[Aib]L[βAla]-{NH((S)CH(Me)CH2NHC2H4OH)}), the IC50 was > 30000 nM in assay [1], > 10000 nM in assay [2], > 1000 nM in assay [3] and > 1000 nM in assay [4].
